Measurements: patent US20240270748A1 (Merck Patent GmbH, priority 2021, published 2024)
Structures can show the parent of a compound that is named as a salt.

System: YAP-TEAD interaction
Experiment: SK-HEP-1 reporter assay (8xTEAD responsive elements driving NanoLuc luciferase)
Format: cell-based
Description: To identify inhibitors of YAP-TEAD interaction, 8×TEAD responsive elements driving the NanoLuc® luciferase gene were stably integrated into SK-HEP-1 cells (ECACC #: 91091816).
For the assay, cells were treated in duplicates with the test compounds in a 10-point dose, with the top concentration starting at 30 μM (final concentration in assay). After a 24 hour incubation at 37° C., 95% rH, and 5% CO2, a luciferase substrate/lysis reagent mix (NanoGlo™, Promega) was added to the cells, allowing the quantification of cellular luciferase activity.
Cell Media: The cells were cultured in the following media: MEM, +10% FBS, +1× GlutaMAX, +1 mM Sodium-Pyruvate, +100 μM Non-essential amino acids, +0.1 mg/ml Hygromycin. The media used for the assay was: MEM (w/o Phenol Red), +10% FBS, +1× GlutaMAX, +1 mM Sodium-Pyruvate, +100 μM Non-essential amino acids, +0.5% Pen/Strep
Reagents: The reagents used are listed below:
Cell culture: The cells were examined using an inverted microscope to check for health and cell density. To dissociate adherent cells, the monolayer of cells was washed once with pre-warmed PBS. After removing the PBS, 3 ml pre-warmed Accutase® was added to a F75 flask, dispersed evenly and the flask was allowed to sit in incubator for ˜4-5 minutes.
When a single cell suspension was obtained, 7 ml of prewarmed growth media was added and resuspended with the cells. The cell suspension was transferred to a sterile 15 ml conical centrifuge tube, and spun for 5 min at 300×g, RT. The supernatant was discarded and the pellet was resuspended in 10 ml of pre-warmed growth media.
The total cell count was determined, and 20 μl of the desired cell number was added to each well of a 384 well plate using a Multidrop Combi. The plates were then incubated for 24 hours at 37° C., 95% rH, and 5% C02.
Compound treatment: 24 hours after seeding, the cells were treated with compounds.
A 1:333 dilution of compounds, diluted in DMSO, was made to get a final concentration of 0.3% DMSO per well. To transfer the compounds to the assay plate, […] was shot from Labcyte low dead volume plates to the cell plates containing 20 μl media/well with the ECHO 555 liquid handling system.
After treatment, the cells were fed with 20 μl fresh pre-warmed assay media using a Multidrop combi.
The assay plates were then incubated for another 24 h at 37° C., 95% rH, and 5% CO2.
Luciferase readout: 24 h after treatment, the plates were taken out of the incubator and were allowed to equilibrate to RT. 30 μl of NanoGlo® reagent was added to the plates in the dark. Plates were shaken for 20 min on a Teleshake (˜1500 rpm) in the dark. The luminescence was then measured using an EnVision microplate reader. The IC50 values were generated using Genedata Screener®.

[1] = Homo sapiens, SK-HEP1, SK-HEP-1 reporter assay, class symbols

Row | Compound | IC50 [1] [µM] | further results
1 | Cn1cc2c3cc(C(=O)NC[C@@H](O)C(F)(F)F)ccc3n(-c3ccc(C(F)(F)F)cc3)c2n1 [Example C135, 2-methyl-N-[(2R)-3,3,3-trifluoro-2-hydroxypropyl]-8-[4-(trifluoromethyl)phenyl]-2H,8H-pyrazolo[3,4-b]indole-5-carboxamide] | 0.1 to 10 | –
2 | CCN1CCC(NC(=O)c2ccc3c(c2)c2cn(C)nc2n3-c2ccc(C(F)(F)F)cc2)CC1 [Example C136, N-(1-ethylpiperidin-4-yl)-2-methyl-8-[4-(trifluoromethyl)phenyl]-2H,8H-pyrazolo[3,4-b]indole-5-carboxamide trifluoroacetate] | 0.1 to 10 | –
3 | Cn1cc2c3cc(C(=O)N=S4(=O)CCC5(CCNCC5)C4)ccc3n(-c3ccc(C(F)(F)F)cc3)c2n1 (centres unmarked) [Example C138, 2-methyl-N-{2-oxo-2lambda6-thia-8-azaspiro[4.5]decan-2-ylidene}-8-[4-(trifluoromethyl)phenyl]-2H,8H-pyrazolo[3,4-b]indole-5-carboxamide] | 0.1 to 10 | –
4 | Cn1cc2c3cc(C(=O)N=S4(=O)CCC(C)(N)CC4)ccc3n(-c3ccc(C(F)(F)F)cc3)c2n1 (centres unmarked) [Example C139, N-(4-amino-4-methyl-1-oxo-1lambda6-thian-1-ylidene)-2-methyl-8-[4-(trifluoromethyl)phenyl]-2H,8H-pyrazolo[3,4-b]indole-5-carboxamide] | 0.1 to 10 | –
5 | Cn1cc2c3cc(C(=O)NCCOC4CCNC4)ccc3n(-c3ccc(C(F)(F)F)cc3)c2n1 (centres unmarked) [Example C142, 2-methyl-N-[2-(pyrrolidin-3-yloxy)ethyl]-8-[4-(trifluoromethyl)phenyl]-2H,8H-pyrazolo[3,4-b]indole-5-carboxamide] | 0.1 to 10 | –
6 | Cn1cc2c3cc(C(=O)N=S4(=O)CCC5(CC4)CC(N)CCO5)ccc3n(-c3ccc(C(F)(F)F)cc3)c2n1 (centres unmarked) [Example C143, N-{4-amino-9-oxo-1-oxa-9lambda6-thiaspiro[5.5]undecan-9-ylidene}-2-methyl-8-[4-(trifluoromethyl)phenyl]-2H,8H-pyrazolo[3,4-b]indole-5-carboxamide] | – | IC50 (Homo sapiens, SK-HEP1, SK-HEP-1 reporter assay, n.d. = value not detectable below threshold given in parentheses, ND = not determinable within the entire range): > 3.2 µM
7 | C[C@H](NC(=O)c1ccc2c(c1)c1cn(C)nc1n2-c1ccc(C(F)(F)F)cc1)C1CNC1 [Example C144, N-[(1S)-1-(azetidin-3-yl)ethyl]-2-methyl-8-[4-(trifluoromethyl)phenyl]-2H,8H-pyrazolo[3,4-b]indole-5-carboxamidetrifluoroacetate] | 0.1 to 10 | –
8 | CC(N)CS(C)(=O)=NC(=O)c1ccc2c(c1)c1cn(C)nc1n2-c1ccc(C(F)(F)F)cc1 (centres unmarked) [Example C145, N-[(2-aminopropyl)(methyl)oxo-λ^6-sulfanylidene]-2-methyl-8-[4-(trifluoromethyl)phenyl]-2H,8H-pyrazolo[3,4-b]indole-5-carboxamide] | 0.1 to 10 | –
9 | COCCS(=O)(CCN)=NC(=O)c1ccc2c(c1)c1cn(C)nc1n2-c1ccc(C(F)(F)F)cc1 (centres unmarked) [Example C146, N-[(2-aminoethyl)(2-methoxyethyl)oxo-λ^6-sulfanylidene]-2-methyl-8-[4-(trifluoromethyl)phenyl]-2H,8H-pyrazolo[3,4-b]indole-5-carboxamide] | 0.1 to 10 | –
10 | Cn1cc2c3cc(C(=O)N4CC[C@@H](O)C4)ccc3n(-c3ccc(C(F)(F)F)cn3)c2n1 [Example C152, (3R)-1-{2-methyl-8-[5-(trifluoromethyl)pyridin-2-yl]-2H,8H-pyrazolo[3,4-b]indole-5-carbonyl}pyrrolidin-3-ol] | > 10 | –
11 | C[C@H](CO)C(=O)Nc1ccc2c(c1)c1cn(C)nc1n2-c1ccc(C(F)(F)F)cc1 [Example C154, (2R)-3-hydroxy-2-methyl-N-{2-methyl-8-[4-(trifluoromethyl)phenyl]-2H,8H-pyrazolo[3,4-b]indol-5-yl}propanamide] | 0.1 to 10 | –
12 | C[C@H](CO)NC(=O)c1ccc2c(c1)c1cn(C)nc1n2-c1ccc(F)cc1 [Example C155, 8-(4-fluorophenyl)-N-[(2R)-1-hydroxypropan-2-yl]-2-methyl-2H,8H-pyrazolo[3,4-b]indole-5-carboxamide] | 0.1 to 10 | –
13 | Cn1cnc2c1c1cc(C3CC(Br)=NO3)ccc1n2-c1ccc(C(F)(F)F)cc1 (centres unmarked) [Example C158, 3-bromo-5-{1-methyl-4-[4-(trifluoromethyl)phenyl]-1H,4H-imidazo[4,5-b]indol-7-yl}-4,5-dihydro-1,2-oxazole] | 0.1 to 10 | –
14 | CC(NC(=O)c1ccc2c(c1)c1cn(C)nc1n2-c1ccc(C(F)(F)F)cc1)c1cccc(NC(=O)OC(C)(C)C)n1 (centres unmarked) [Example C165, tert-butyl N-{6-[1-({2-methyl-8-[4-(trifluoromethyl)phenyl]-2H,8H-pyrazolo[3,4-b]indol-5-yl}formamido)ethyl]pyridin-2-yl}carbamate] | 0.1 to 10 | –
15 | Cn1cc2c3cc(C(=O)N4CC[C@@H](O)C4)ccc3n(-c3ccc(C(F)(F)F)c(F)c3)c2n1 [Example C171, (3R)-1-{8-[3-fluoro-4-(trifluoromethyl)phenyl]-2-methyl-2H,8H-pyrazolo[3,4-b]indole-5-carbonyl}pyrrolidin-3-ol] | 0.1 to 10 | –
16 | Cn1cc2c3cc(C(=O)N=S4(=O)CC(C#N)C4)ccc3n(-c3ccc(C(F)(F)F)cc3)c2n1 (centres unmarked) [Example C178, N-(3-cyano-1-oxo-1¿6-thietan-1-ylidene)-2-methyl-8-[4-(trifluoromethyl)phenyl]-2H,8H-pyrazolo[3,4-b]indole-5-carboxamide] | 0.1 to 10 | –
17 | C=Cc1ccc2c(c1)c1c(ncn1C)n2-c1ccc(C(F)(F)F)cc1 [Example C179, 7-ethenyl-1-methyl-4-[4-(trifluoromethyl)phenyl]-1H,4H-imidazo [4,5-b]indole] | 0.1 to 10 | –
18 | [2H]C1([2H])C(n2c3ccc(C(=O)N[C@H](C)CO)cc3c3cn(C)nc32)C([2H])([2H])C([2H])([2H])C([2H])([2H])C1([2H])[2H] [Example C197] | 0.1 to 10 | –
19 | Cn1cc2c3cc(C(=O)NC4CCNCC4)ccc3n(-c3ccc(C(F)(F)F)cc3)c2n1 [Example C203, 2-methyl-N-(piperidin-4-yl)-8-[4-(trifluoromethyl)phenyl]-2H,8H-pyrazolo[3,4-b]indole-5-carboxamide trifluoroacetate] | 0.1 to 10 | –
20 | Cn1cc2c3cc(C(N)=O)ccc3n(C3CC4(C3)CC(F)(F)C4)c2n1 [Example C205, 8-{6,6-difluorospiro[3.3]heptan-2-yl}-2-methyl-2H,8H-pyrazolo[3,4-b]indole-5-carboxamide] | 0.1 to 10 | –
21 | CNC(=O)c1ccc2c(c1)c1cn(C)nc1n2C1CC2(C1)CC(F)(F)C2 [Example C206, 8-{6,6-difluorospiro[3.3]heptan-2-yl}-N,2-dimethyl-2H,8H-pyrazolo[3,4-b]indole-5-carboxamide] | 0.01 to 0.1 | –
22 | C[C@H](CO)NC(=O)c1ccc2c(c1)c1cn(C)nc1n2C1CC2(C1)CC(F)(F)C2 [Example C207, 8-{6,6-difluorospiro[3.3]heptan-2-yl}-N-[(2R)-1-hydroxypropan-2-yl]-2-methyl-2H,8H-pyrazolo[3,4-b]indole-5-carboxamide] | 0.1 to 10 | –
23 | Cn1cnc2c1c1cc(C3CC(n4ccnn4)=NO3)ccc1n2-c1ccc(C(F)(F)F)cc1 (centres unmarked) [Example C211, 1-(5-{1-methyl-4-[4-(trifluoromethyl)phenyl]-1H,4H-imidazo[4,5-b]indol-7-yl}-4,5-dihydro-1,2-oxazol-3-yl)-1H-1,2,3-triazole] | 0.1 to 10 | –
24 | Cn1cnc2c1c1cc(C3CC(n4nccn4)=NO3)ccc1n2-c1ccc(C(F)(F)F)cc1 (centres unmarked) [Example C212, 2-(5-{1-methyl-4-[4-(trifluoromethyl)phenyl]-1H,4H-imidazo[4,5-b]indol-7-yl}-4,5-dihydro-1,2-oxazol-3-yl)-2H-1,2,3-triazole] | 0.1 to 10 | –
25 | Cn1cnc2c1c1cc(C3CC(Oc4cncnc4)=NO3)ccc1n2-c1ccc(C(F)(F)F)cc1 (centres unmarked) [Example C215, 5-[(5-{1-methyl-4-[4-(trifluoromethyl)phenyl]-1H,4H-imidazo[4,5-b]indol-7-yl}-4,5-dihydro-1,2-oxazol-3-yl)oxy]pyrimidine] | – | IC50 (SK-HEP-1 reporter assay, class symbols): 0.1 to 10 µM
26 | Cn1cc2c3cc(C(=O)NC4CCNCC4(F)F)ccc3n(-c3ccc(C(F)(F)F)cc3)c2n1 (centres unmarked) [Example C217, N-(3,3-difluoropiperidin-4-yl)-2-methyl-8-[4-(trifluoromethyl)phenyl]-2H,8H-pyrazolo[3,4-b]indole-5-carboxamide] | > 10 | –
